Test results as given in the OligoGym collection.
Several values for one entry are separate records, joined by “and”; a condition that tells them apart may be missing. Equal values may be shown once. After the bases stand the sugars from the 5' end (letter, count) and the backbone: PS all phosphorothioate, else s phosphorothioate and o phosphodiester by linkage. Methylation of C is not given here. e = 2'-O-(2-methoxyethyl) (MOE); l = locked nucleic acid (LNA); k = constrained ethyl (cEt); d = 2'-deoxy (DNA)

Legend:
ANGPTL2 = conditions: ASO
KRAS = conditions: ASO

AAGAAGTTAACAGAGCCATC (sugars l1 d15 l4, PS)
target mRNA inhibition (ANGPTL2; 5 µM): 42.1%
target mRNA inhibition (ANGPTL2; 25 µM): 45.8%

AAGAGAGAAGGCAGTGAGAG (sugars l2 d16 l2, PS)
target mRNA inhibition (ANGPTL2; 5 µM): 24.8%
target mRNA inhibition (ANGPTL2; 25 µM): 10.9%

AAGTTGATAGTTTATCTC (sugars l4 d11 l3, PS)
target mRNA inhibition (ANGPTL2; 5 µM): 91.6%
target mRNA inhibition (ANGPTL2; 25 µM): 91.4%

ACCCTCCATCCTTCACC (sugars l2 d13 l2, PS)
target mRNA inhibition (ANGPTL2; 5 µM): 34.7%
target mRNA inhibition (ANGPTL2; 25 µM): 54.5%

ACCCTCCATCCTTCACC (sugars l3 d12 l2, PS)
target mRNA inhibition (ANGPTL2; 5 µM): 38.9%
target mRNA inhibition (ANGPTL2; 25 µM): 44%

ACCCTCCATCCTTCACC (sugars l4 d11 l2, PS)
target mRNA inhibition (ANGPTL2; 5 µM): 36.5%
target mRNA inhibition (ANGPTL2; 25 µM): 52.7%

AGTAGCCTTCTGACCAA (sugars l1 d13 l3, PS)
target mRNA inhibition (ANGPTL2; 5 µM): 48.5%
target mRNA inhibition (ANGPTL2; 25 µM): 56.5%

GATGGTGTAACATAGG (sugars k3 d10 k3, PS)
target mRNA inhibition (KRAS; A431, 0.185 µM): 8%
target mRNA inhibition (KRAS; A431, 0.556 µM): 30%
target mRNA inhibition (KRAS; A431, 1.667 µM): 56%
target mRNA inhibition (KRAS; A431, 2 µM): 60%
target mRNA inhibition (KRAS; A431, 5 µM): 68%

GATTGTGCTGAGCTTG (sugars kkdddddddddkekek, PS)
target mRNA inhibition (KRAS; A431, 2 µM): 45%

GATTGTGCTGAGCTTG (sugars kkddddddddkekekk, PS)
target mRNA inhibition (KRAS; A431, 2 µM): 14%

GATTTGTCAGCAGGAC (sugars kkddddddddkekekk, PS)
target mRNA inhibition (KRAS; A431, 2 µM): 0%

GCTCTTGATTTGTCAG (sugars k3 d10 k3, PS)
target mRNA inhibition (KRAS; A431, 2 µM): 23%

GGAGTCTTTATAGTAA (sugars kkddddddddddkeke, PS)
target mRNA inhibition (KRAS; A431, 0.185 µM): 27%
target mRNA inhibition (KRAS; A431, 0.556 µM): 45%
target mRNA inhibition (KRAS; A431, 1.667 µM): 57%
target mRNA inhibition (KRAS; A431, 2 µM): 55%
target mRNA inhibition (KRAS; A431, 5 µM): 82%

GGAGTCTTTATAGTAA (sugars kkddddddddkekekk, PS)
target mRNA inhibition (KRAS; A431, 2 µM): 25%

GGCAAGATGACACTAA (sugars k3 d10 k3, PS)
target mRNA inhibition (KRAS; A431, 2 µM): 30%

GGGAATTACAAGTATT (sugars k3 d10 k3, PS)
target mRNA inhibition (KRAS; A431, 2 µM): 28%

GGTAAAAGCTAACAGT (sugars k3 d10 k3, PS)
target mRNA inhibition (KRAS; A431, 2 µM): 49%

GGTGTAACATAGGTTA (sugars k3 d10 k3, PS)
target mRNA inhibition (KRAS; A431, 0.185 µM): 7%
target mRNA inhibition (KRAS; A431, 0.556 µM): 29%
target mRNA inhibition (KRAS; A431, 1.667 µM): 47%
target mRNA inhibition (KRAS; A431, 2 µM): 55% and 50%
target mRNA inhibition (KRAS; A431, 5 µM): 67%

GTAAAAGCTAACAGTC (sugars k3 d10 k3, PS)
target mRNA inhibition (KRAS; A431, 2 µM): 21%

GTCCAGTGATACTTTC (sugars k3 d9 k3 e1, PS)
target mRNA inhibition (KRAS; A431, 2 µM): 48%

GTCCAGTGATACTTTC (sugars kddddddddddkekek, PS)
target mRNA inhibition (KRAS; A431, 2 µM): 36%

GTCCAGTGATACTTTC (sugars kkddddddddkekekk, PS)
target mRNA inhibition (KRAS; A431, 2 µM): 22%

GTGCAATGGTGACAAC (sugars k3 d10 k3, PS)
target mRNA inhibition (KRAS; A431, 2 µM): 38%

GTGTGACTCAGTTAAA (sugars kddddddddddkekek, PS)
target mRNA inhibition (KRAS; A431, 2 µM): 30%

GTGTGACTCAGTTAAA (sugars kdddddddddkekeke, PS)
target mRNA inhibition (KRAS; A431, 2 µM): 25%

GTGTTTATGCAATGTT (sugars kddddddddddkekek, PS)
target mRNA inhibition (KRAS; A431, 2 µM): 53%

GTGTTTATGCAATGTT (sugars kdddddddddkekeke, PS)
target mRNA inhibition (KRAS; A431, 2 µM): 41%

GTGTTTATGCAATGTT (sugars kkkddddddddkdkdk, PS)
target mRNA inhibition (KRAS; A431, 0.125 µM): 70% and 58%
target mRNA inhibition (KRAS; A431, 0.185 µM): 27%
target mRNA inhibition (KRAS; A431, 0.556 µM): 47%
target mRNA inhibition (KRAS; A431, 1.667 µM): 73%
target mRNA inhibition (KRAS; A431, 5 µM): 81%

GTTTATGCAATGTTAA (sugars kddddddddddkekek, PS)
target mRNA inhibition (KRAS; A431, 2 µM): 37%

GTTTATGCAATGTTAA (sugars kkddddddddkekekk, PS)
target mRNA inhibition (KRAS; A431, 0.185 µM): 27%
target mRNA inhibition (KRAS; A431, 0.556 µM): 46%
target mRNA inhibition (KRAS; A431, 1.667 µM): 45%
target mRNA inhibition (KRAS; A431, 2 µM): 57%
target mRNA inhibition (KRAS; A431, 5 µM): 79%

TAATCCATTTATGTGA (sugars k3 d10 k3, PS)
target mRNA inhibition (KRAS; A431, 2 µM): 31%

TAATGTCACAAGCAGA (sugars k3 d10 k3, PS)
target mRNA inhibition (KRAS; A431, 2 µM): 52%

TAGGAGTCTTTATAGT (sugars k3 d10 k3, PS)
target mRNA inhibition (KRAS; A431, 2 µM): 41%

TAGTGATTAGGTCAAA (sugars kkdddddddddkdkdk, PS)
target mRNA inhibition (KRAS; A431, 2 µM): 25%

TATAATAATCCCCATT (sugars k3 d10 k3, PS)
target mRNA inhibition (KRAS; A431, 2 µM): 7%

TCAAAGTTCACATAAA (sugars k3 d10 k3, PS)
target mRNA inhibition (KRAS; A431, 2 µM): 19%

TCATTGTTTAAAAAAA (sugars k3 d10 k3, PS)
target mRNA inhibition (KRAS; A431, 2 µM): 0%

TCCAGTGATACTTTCA (sugars kkddddddddddkeke, PS)
target mRNA inhibition (KRAS; A431, 2 µM): 39%

TCCATTTATGTGACTA (sugars kddddddddddkekek, PS)
target mRNA inhibition (KRAS; A431, 2 µM): 38%

TCCATTTATGTGACTA (sugars kkkddddddddkdkdk, PS)
target mRNA inhibition (KRAS; A431, 2 µM): 16%

TCCATTTATGTGACTA (sugars kkkddddddddkekek, PS)
target mRNA inhibition (KRAS; A431, 2 µM): 0%

TCTGAATTAGTCTCCA (sugars k3 d10 k3, PS)
target mRNA inhibition (KRAS; A431, 0.185 µM): 0%
target mRNA inhibition (KRAS; A431, 0.556 µM): 26%
target mRNA inhibition (KRAS; A431, 1.667 µM): 48%
target mRNA inhibition (KRAS; A431, 2 µM): 62% and 50%
target mRNA inhibition (KRAS; A431, 5 µM): 68%

TCTTGTTGAGCTATCC (sugars k3 d10 k3, PS)
target mRNA inhibition (KRAS; A431, 0.185 µM): 28% and 3%
target mRNA inhibition (KRAS; A431, 0.556 µM): 38% and 29%
target mRNA inhibition (KRAS; A431, 1.667 µM): 61% and 40%
target mRNA inhibition (KRAS; A431, 2 µM): 56%
target mRNA inhibition (KRAS; A431, 5 µM): 82% and 64%

TCTTTTAATGTCACAA (sugars k3 d10 k3, PS)
target mRNA inhibition (KRAS; A431, 2 µM): 46%

TGAAAAGTGTTTATGC (sugars k3 d10 k3, PS)
target mRNA inhibition (KRAS; A431, 2 µM): 40%

TGATTTGTCAGCAGGA (sugars kkkddddddddkekek, PS)
target mRNA inhibition (KRAS; A431, 2 µM): 41%

TGCAATGTTAATTTAA (sugars k3 d10 k3, PS)
target mRNA inhibition (KRAS; A431, 2 µM): 13%

TGCTATAATAATCCCC (sugars k3 d10 k3, PS)
target mRNA inhibition (KRAS; A431, 2 µM): 43%

TGCTGTGAAACTCTCT (sugars kkddddddddddkeke, PS)
target mRNA inhibition (KRAS; A431, 2 µM): 30%

TGCTGTGAAACTCTCT (sugars kkdddddddddkekek, PS)
target mRNA inhibition (KRAS; A431, 2 µM): 0%

TGCTGTGAAACTCTCT (sugars kkddddddddkekekk, PS)
target mRNA inhibition (KRAS; A431, 2 µM): 5%

TGTGCAATGGTGACAA (sugars k3 d10 k3, PS)
target mRNA inhibition (KRAS; A431, 2 µM): 28%

TGTTTAAAAAAAAAAT (sugars k3 d10 k3, PS)
target mRNA inhibition (KRAS; A431, 2 µM): 2%

TGTTTATGCAATGTTA (sugars k3 d10 k3, PS)
target mRNA inhibition (KRAS; A431, 0.125 µM): 49% and 53%
target mRNA inhibition (KRAS; A431, 0.185 µM): 21% and 0%
target mRNA inhibition (KRAS; A431, 0.556 µM): 40% and 27%
target mRNA inhibition (KRAS; A431, 1.667 µM): 53%
target mRNA inhibition (KRAS; A431, 5 µM): 79% and 68%
target mRNA inhibition (KRAS; NCI-H460, 0.037 µM): 41%

TGTTTATGCAATGTTA (sugars kkddddddddddkeke, PS)
target mRNA inhibition (KRAS; A431, 2 µM): 23%

TGTTTATGCAATGTTA (sugars kkdddddddddkdkdk, PS)
target mRNA inhibition (KRAS; A431, 2 µM): 46%

TTAAAAAAAAAATTAA (sugars k3 d10 k3, PS)
target mRNA inhibition (KRAS; A431, 2 µM): 0%

TTAATTACTTATGCAG (sugars k3 d10 k3, PS)
target mRNA inhibition (KRAS; A431, 2 µM): 32%

TTACTTATGCAGAGAA (sugars k3 d10 k3, PS)
target mRNA inhibition (KRAS; A431, 2 µM): 46%

TTAGTGATTAGGTCAA (sugars k3 d9 k3 e1, PS)
target mRNA inhibition (KRAS; A431, 2 µM): 53%

TTATGCAATGTTAATT (sugars k3 d10 k3, PS)
target mRNA inhibition (KRAS; A431, 2 µM): 3%

TTGATTTGTCAGCAGG (sugars kkdddddddddkekek, PS)
target mRNA inhibition (KRAS; A431, 2 µM): 23% and 22%

TTGTATCTTGTTGAGC (sugars k3 d10 k3, PS)
target mRNA inhibition (KRAS; A431, 2 µM): 50%

TTGTGCAATGGTGACA (sugars k3 d10 k3, PS)
target mRNA inhibition (KRAS; A431, 2 µM): 29%
